# Source: article PMC9841533, “Microtubule-Stabilizing 1,2,4-Triazolo[1,5-a]pyrimidines as Candidate Therapeutics for Neurodegenerative Disease: Matched Molecular Pair Analyses and Computational Studies Reveal New Structure–Activity Insights” (Journal of Medicinal Chemistry, 2022)
# Where a name gives a salt, the structure may show the parent alone. Read-outs that look alike come from different tables or passages of the source.
# What was measured:
# [1] = system: acetylated α-tubulin (AcTub) levels in QBI293 cells; experiment: QBI293 cell assay of MT stabilization: acetylated α-tubulin ELISA; assay type: cell-based
# Method: (§1) All test compounds were initially screened in the same cell-based (QBI293) assay of MT stabilization used in our previous SAR studies[11],[12] so as to allow direct comparison with literature data. Changes in levels of acetylated α-tubulin (AcTub) and total α-tubulin (α-Tub), relative to vehicle-treated negative control cells, were determined after 4 h of incubation with test compounds at 1 and 10 μM. To account for possible day-to-day differences in the responsiveness of cells to MT-stabilizing treatment, compound-dependent changes in AcTub levels relative to DMSO-treated cells were also normalized to the corresponding changes caused by 100 nM of 5 that was used as a positive control. In addition, docking studies, binding free energy calculations, and in selected cases, molecular dynamic simulations were conducted using an X-ray structure of the vinca and seventh sites (PDB: 5NJH,[10]7CLD[13]). […] For selected compounds, additional studies included testing in the QBI293 cell AcTub assay at additional compound concentrations, and/or evaluation of test compounds for their ability to prevent MT collapse in primary neuron cultures treated with the phosphatase inhibitor, okadaic […] (OA). Finally, cytotoxicity studies in QBI293 and HeLa cells were also conducted for representative examples (Supporting Information).
# (§2) Compound-induced changes in acetylated-tubulin and α-tubulin in QBI293 cells or primary mouse or rat neurons were as previously described.[11],[12] […] The plated cells were incubated overnight, after which the medium was aspirated and fresh medium containing vehicle (0.25–0.3% DMSO) or test compound was added. Test compounds were prepared as 4–20 mM stock solutions in 100% DMSO, and these were diluted in culture medium prior to addition to the QBI293 cells. After 4 h incubation, whole-cell extracts were prepared from the QBI293 cells as described[11] and the supernatant fraction from each sample was assessed for protein content by bicinchoninic acid (BCA) assay. The amount of acetyl-tubulin (AcTub) and α-tubulin (αTub) within the cell extract samples was quantified using specific enzyme-linked immunosorbent assays (ELISA), as previously described.[11] Acetyl-tubulin levels were determined in a similar manner in rat or mouse cortical neuron cultures in which embryonic dissociated cortical neurons were plated at 3 × 10^5 cells/well in poly-D-lysine-coated 12-well plates, essentially as previously described.[11] […] Culture homogenates were prepared for the determination of AcTub levels by ELISA as previously described.[11]
# [2] = system: total α-tubulin (α-Tub) levels in QBI293 cells; experiment: QBI293 cell assay: total α-tubulin ELISA; assay type: cell-based
# Method: as §1, §2
# [3] = 4 h, 1 uM compound, read-out: AcTub (1uM)
# [4] = 4 h, 10 uM compound, read-out: AcTub (10 uM)
# [5] = 4 h incubation, 1 μM, read-out: AcTub 1 μM, fold-change compared to vehicle (DMSO)-treated cells
# [6] = 4 h incubation, 10 μM, read-out: AcTub 10 μM, fold-change compared to vehicle (DMSO)-treated cells
# [7] = 4 h, 1 uM compound, read-out: AlfaTub (1uM)
# [8] = 4 h, 10 uM compound, read-out: AlfaTub (10 uM)
# [9] = 4 h incubation, 1 μM, read-out: α-Tub 1 μM, fold-change compared to vehicle (DMSO)-treated cells
# [10] = 4 h incubation, 10 μM, read-out: α-Tub 10 μM, fold-change compared to vehicle (DMSO)-treated cells
Compound,AcTub (1 uM - normalized) ([1]; 1 uM compound),AcTub (10 uM - normalized) ([1]; 10 uM compound),"fold induction at 1 µM [1, 3]","fold induction at 10 µM [1, 4]","AcTub 1 μM, fold-change compared to positive control compound 5 (100 nM) (in parentheses) ([1]; 4 h incubation, 1 μM) [fold-change]","fold induction at 1 µM [1, 5]","AcTub 10 μM, fold-change compared to positive control compound 5 (100 nM) (in parentheses) ([1]; 4 h incubation, 10 μM) [fold-change]","fold induction at 10 µM [1, 6]","fold induction at 1 µM [2, 7]","fold induction at 10 µM [2, 8]","fold induction at 1 µM [2, 9]","fold induction at 10 µM [2, 10]","cellular AcTub at higher (30 μM) concentration ([1]; 4 h, 30 μM)","total α-Tub at higher (30 μM) concentration ([2]; 4 h, 30 μM)"
"CC1(CNc2c(-c3c(F)cc(F)cc3F)c(Cl)nc3ncnn23)CC1 [Compound 13, 5-Chloro-N-((1-methylcyclopropyl)methyl)-6-(2,4,6-trifluorophenyl)-[1,2,4]triazolo[1,5-a]pyrimidin-7-amine]",0.26,0.49,2.68,5.06,0.26,2.68 ± 0.24,0.49,5.06 ± 0.23,1.04,0.97,1.04 ± 0.07,0.97 ± 0.02,,
"Fc1cc(F)c(-c2c(Cl)nc3ncnn3c2NCC2(C(F)(F)F)CC2)c(F)c1 [Compound 14, 5-Chloro-N-((1-(trifluoromethyl)cyclopropyl)methyl)-6-(2,4,6-trifluorophenyl)-[1,2,4]triazolo[1,5-a]pyrimidin-7-amine]",0.22,0.34,1.3,2,0.22,1.3 ± 0.09,0.34,2 ± 0.36,1,0.97,1 ± 0.04,0.97 ± 0.09,,
"Fc1cc(F)c(-c2c(Cl)nc3ncnn3c2NCC2CCC2)c(F)c1 [Compound 15, 5-Chloro-N-(cyclobutylmethyl)-6-(2,4,6-trifluorophenyl)-[1,2,4]triazolo[1,5-a]pyrimidin-7-amine]",0.22,0.44,1.55,3.08,0.22,1.55 ± 0.03,0.44,3.08 ± 0.03,1.07,0.96,1.07 ± 0.01,0.96 ± 0.03,,
"C[C@H](Nc1c(-c2c(F)cc(F)cc2F)c(Cl)nc2ncnn12)C1CC1 [Compound 16, (S)-5-Chloro-N-(1-cyclopropylethyl)-6-(2,4,6-trifluorophenyl)-[1,2,4]triazolo[1,5-a]pyrimidin-7-amine]",0.10,0.15,0.96,1.56,0.10,0.96 ± 0.06,0.15,1.56 ± 0.06,0.95,0.97,0.95 ± 0.02,0.97 ± 0.02,,
"C[C@@H](Nc1c(-c2c(F)cc(F)cc2F)c(Cl)nc2ncnn12)C1CC1 [Compound 17, (R)-5-Chloro-N-(1-cyclopropylethyl)-6-(2,4,6-trifluorophenyl)-[1,2,4]triazolo[1,5-a]pyrimidin-7-amine]",0.19,0.4,1.95,3.99,0.19,1.95 ± 0.18,0.40,3.99 ± 0.1,1.06,1.16,1.06 ± 0.07,1.16 ± 0.02,,
"C[C@H](Nc1c(-c2c(F)cc(OCCCCO)cc2F)c(Cl)nc2ncnn12)C(F)(F)F [Compound 19, (S)-4-(4-(5-Chloro-7-((1,1,1-trifluoropropan-2-yl)amino)-[1,2,4]triazolo[1,5-a]pyrimidin-6-yl)-3,5-difluorophenoxy)butan-1-ol]",0.59,0.6,7.3,7.04,0.59,7.3 ± 1.51,0.6,7.04 ± 0.04,0.62,0.35,0.62 ± 0.05,0.35 ± 0.04,,
"C[C@H](Nc1c(-c2c(F)cc(OCCCCCO)cc2F)c(Cl)nc2ncnn12)C(F)(F)F [Compound 20, (S)-5-(4-(5-Chloro-7-((1,1,1-trifluoropropan-2-yl)amino)-[1,2,4]triazolo[1,5-a]pyrimidin-6-yl)-3,5-difluorophenoxy)pentan-1-ol]",0.50,0.96,3.73,7.12,0.50,3.73 ± 0.22,0.96,7.12 ± 0.29,0.37,0.28,0.43 ± 0.07,0.36 ± 0.03,,
"C[C@@H](Nc1c(-c2c(F)cc(OCCCN(C)C)cc2F)c(Cl)nc2ncnn12)C(C)(C)C [Compound 24, (R)-3-(4-(5-Chloro-7-((3,3-dimethylbutan-2-yl)amino)-[1,2,4]triazolo[1,5-a]pyrimidin-6-yl)-3,5-difluorophenoxy)-N,N-dimethylpropan-1-aminium Formate]",,,,,,,,,,,,,further concentration-dependent decrease in cellular AcTub,without a reduction of total α-Tub
"CN(C)CCCOc1cc(F)c(-c2c(Cl)nc3ncnn3c2NCC(C)(C)C)c(F)c1 [Compound 26, 5-Chloro-6-(4-(3-(dimethylamino)propoxy)-2,6-difluorophenyl)-N-neopentyl-[1,2,4]triazolo[1,5-a]pyrimidin-7-amine]",1.12,0.1,5.98,0.52,1.12,5.98 ± 0.11,0.10,0.52 ± 0.07,0.67,0.73,0.69 ± 0.03,0.73 ± 0.07,,
"CN(C)CCCOc1cc(F)c(-c2c(Cl)nc3ncnn3c2NCC2(C)CC2)c(F)c1 [Compound 28, 5-Chloro-6-(4-(3-(dimethylamino)propoxy)-2,6-difluorophenyl)-N-((1-methylcyclopropyl)methyl)-[1,2,4]triazolo[1,5-a]pyrimidin-7-amine]",0.53,0.09,2.81,0.49,0.53,2.81 ± 0.35,0.09,0.49 ± 0.03,0.84,1.1,0.84 ± 0.12,1.1 ± 0.2,,
